According to patent US6086789A, “Medical uses of pyruvates” (Case Western Reserve University, priority 1998, dated 2000):

Columns and labels:
[1] = Therapeutic pyruvate concentration in vivo, infusion of rats; set-up: species or system rat
Procedure: Therapeutic pyruvate concentration in vivo with DPAG
After preparing pure DPAG, experiments were performed to test whether it could be used to impose a therapeutic concentration of 1 mM pyruvate in arterial blood. Overnight-fasted rats, anesthetized with halothane, were infused in the jugular vein with DPAG at 90 μmol·min^-1 ·kg^-1 for 90 min. This rate corresponds to about 120% of the rats' caloric requirement. Five blood samples (70 μl) were taken from the carotid artery between 60 and 90 min. The arterial concentrations of pyruvate, lactate, and glycerol were clamped at 1.0, 2.5, and 0.8 mM, respectively. Corresponding portal vein concentrations at 90 min were 0.6, 2.5, and 1.0 mM, respectively. FIGS. 8 and 9 show blood concentrations of metabolites in rats infused with DPAG (panel A) and in control rats infused with saline (panel B). Control rats show normal arterial concentrations of pyruvate (0.05 mM) and lactate (0.3 to 0.6 mM; normal values for lactate are up to 1.5 mM). In rats infused with DPAG, the arterial concentrations of pyruvate and lactate were clamped at 1.0, and 2.5 mM, respectively. Corresponding portal vein concentrations at 90 min were 0.6 and 2.5 mM, respectively. Arterial glucose remained at 5-6 mM. […] Thus, DPAG can be safely used to set up the 1 mM target concentration of pyruvate expected to be beneficial for the treatment of reperfusion injury. […] Third, during peripheral administration of DPAG at 90 μmol·min^-1 ·kg^-1, portal pyruvate concentration was about 2/3 that which yielded a 3 to 6-fold increase in ethanol uptake by perfused rat livers. A portal pyruvate concentration of 1 mM could be achieved (i) by increasing the peripheral infusion of DPAG to 120 μmol·min^-1 ·kg^-1, or (ii) by administering DPAG enterally to better target portal vein concentrations.

[2] = tested on: ketoacidotic diabetic rats; assay: Treatment of ketoacidotic diabetic BB rats; format: in vivo
Procedure: Prediabetic male BB rats were purchased from the University of Massachussetts Breeding Center. They were treated with insulin (PZI 40 U/mL, Anpro Pharmaceutical), mean of 2.1 U for rats weighing between 250-300 g) as soon as they became hyperglycemic. They were used after at least three weeks of clinical stability and steady weight growth. Under general anesthesia, permanent catheters were inserted in a carotid artery and the controlateral external jugular vein. Then, the rats were deprived of insulin for two days. […] The rats were then treated with one of four protocols: […]

myocardial infarct = assay: Decrease in myocardial infarct size in swine (LAD occlusion/reperfusion); format: in vivo
Procedure: Decrease in myocardial infarct size in swine by DPAG.
The animals were anesthetized, instrumented, and subjected to 60 minutes of total occlusion of the distal 2/3 of the left anterior descending coronary artery, followed by 120 min of reperfusion. The area of the infarct was stained with tetrazolium, and infarct size quantitated on 5 mm slices of tissue. Treatment with DPAG was started with the onset of reperfusion (8.0 mg/kgmin for 120 min).

perfused rat livers [3] = assay: Effect of DPAG on ethanol uptake by perfused rat livers; conditions: DPAG raised from zero to 0.5 mM, 2 mM ethanol, read-out: increase of ethanol uptake by the liver
Procedure: The effect of DPAG on the rate of ethanol uptake by perfused rat livers was also tested. Livers were perfused with non-recirculating buffer containing 4 mM glucose, 2 mM ethanol and variable concentrations of DPAG (0 to 1.5 mM). […] Note that 0.5 mM DPAG corresponds to 1 mM pyruvate after hydrolysis. Thus, to accelerate ethanol oxidation in vivo, the rate of DPAG administration should be adjusted to achieve a 1 mM concentration of free pyruvate in the portal vein. When DPAG was infused to live rats at 90 μmol·min^-1·kg^-1, the portal vein concentration of pyruvate was 0.6 mM. A portal pyruvate concentration of 1 mM could be achieved in vivo (i) by increasing the peripheral infusion of DPAG to 120 μmol·min·^-1 ·kg^-1, or (ii) by administering DPAG enterally to better target portal vein concentrations.

ethanol oxidation = conditions: intragastric gavage, dogs; cited from earlier work
[4] = Stability of PNACE in solution; format: physicochemical
Source text: However, the present inventive compound has proven to be readily manufacturable and very effective in the prevention of organ damage associated with reperfusion injury. The compound has been prepared in pure form and in gram amounts. Its formula has been confirmed by elemental analysis and gas chromatography-mass spectrometry. The compound is stable in slightly acidic solutions (pH 4-5). […] The compound has also been synthesized labeled with three deuterium ^2 H atoms on the N-acetyl moiety. This deuterated compound is used as an internal standard for the assay of the compound by isotope dilution gas chromatography-mass spectrometry.

isolated rabbit hearts [5] = assay: Recovery of isolated rabbit hearts following 25 min of warm ischemia; set-up: species or system New Zealand rabbits; conditions: 20 μM PNACE
Procedure: In the working mode, which simulates physiological conditions, hearts pump the buffer against a 85 cm hydrostatic pressure in the aorta. The mechanical performance of the hearts was assessed by monitoring heart rate, cardiac output, coronary flow, left ventricular pressure, and dP/dtmax. The latter parameter reflects the capacity of the heart to increase hydrostatic pressure in the left ventricle. Following 30 minutes of equilibration, the hearts were made ischemic for 25 minutes by clamping the aortic and left atrial canulas. Then, the clamps were removed to allow reperfusion with oxygenated KRB buffer containing either no additive (n=7, control group), or 20 μM pyruvate-N-acetyl-cysteine ethyl ester ([…]=7). PNACE was infused via a syringe pump into the inflowing perfusate. In the syringe, PNACE was dissolved in 0.1 mM HCl to prevent hydrolysis of the thioester.

preserved rat livers = assay: Metabolic integrity of preserved rat livers upon reperfusion
Procedure: Improved function of preserved rat livers
The first group of livers (n=7, control group) was not preserved, but was perfused at 37° C. for 45 minutes. The second group of livers (n=8, preserved group) was flushed with ice-cold University of Wisconsin (UW) preservation solution and stored for 24 hours in ice-cold UW solution. Next, the livers were reperfused at 37° C. with non-recirculating KRB buffer containing 5 mM glucose. The third group of livers (n=8, preserved+PNACE group) was treated as the second group except that 20 μM PNACE was added to the UW preservation solution and to the reperfusion KRB buffer. During the last 45 min of (re)perfusion, the function of the three groups of livers was assessed by (i) the release of three cellular enzymes, i.e. lactate dehydrogenase, aspartate aminotransferase, and alanine aminotransferase, (ii) oxygen consumption, and (iii) the production of ketone bodies, ie β-hydroxybutyrate+acetoacetate, after addition of 1 mM octanoate to the perfusate.
Effect of PNACE on metabolic integrity of preserved rat livers upon reperfusion

reperfused rat hearts = conditions: cited from earlier work
isolated rabbit hearts [6] = assay: Recovery of isolated rabbit hearts following massive catecholamine injury; conditions: 50 μM isoproterenol, after 10 minutes
Procedure: Recovery of isolated rabbit hearts following massive catecholamine injury
Rabbit hearts were perfused in the working mode as in the above example. However, after the 30 minutes of equilibration, 50 μM isoproterenol was added to the inflowing perfusate for 10 min. Isoproterenol is a catecholamine, which, at the dose administered, induces a marked increase in heart rate and cardiac output. After 10 minutes, the mechanical performance of the hearts decreased markedly to the point where cardiac output was almost zero. Then, isoproterenol infusion was stopped, and perfusion was continued for 30 minutes with oxygenated KRB buffer containing either no additive (n=7, control group), or 20 μM PNACE (n=7).

perfused rat livers [7] = assay: Acceleration of ethanol oxidation by components of pyruvate esters in perfused rat livers; conditions: perfused liver
Procedure: Acceleration of ethanol oxidation
Rat livers were infused with ethanol and the components of the esters of glycerol-and-DHA pyruvate to represent the conditions that will occur after ester hydrolysis. […] After 10 min baseline, the influent perfusate was enriched with various equimolar concentrations of the components of the esters, ie DHA+Na-pyruvate, or glycerol+Na-pyruvate (up to 2.2 mM). These conditions simulated infusion and hydrolysis of glycerol- or DHA-monopyruvate. The uptakes of ethanol, pyruvate, DHA and glycerol, as well as the productions of lactate and glucose were measured.

[8] = Group III preserved + PNACE (20 μM), 25-30 min.
[9] = preserved reperfused rat livers, 20 μM PNACE

Molecule: CC(=O)OCC(COC(=O)C(C)=O)OC(=O)C(C)=O (stereo not shown) [DPAG, dipyruvyl-acetyl-glycerol]
- Arterial glucose ([1]; DPAG 90 μmol.min^-1.kg^-1): 5 to 6 mM
- portal vein concentration of lactate ([1]; DPAG 90 μmol.min^-1.kg^-1, at 90 min): 2.5 mM
- acid-base and electrolyte parameters of aortic blood ([1]; DPAG 90 μmol.min^-1.kg^-1, final samples): normal acid-base and electrolyte parameters
- arterial concentration of lactate ([1]; DPAG 90 μmol.min^-1.kg^-1 jugular vein, 60-90 min): 2.5 mM
- sodium overload and/or acid-base perturbations ([1]; DPAG at 1 mM arterial pyruvate): without sodium overload and/or acid-base perturbations
- increases in glucose and lactate concentrations ([1]; DPAG at 120% of the caloric requirement): lack of major increases in glucose and lactate concentrations
- decrease of total KB concentration ([2]; DPAG 90 μmol.min^-1 kg^-1 in saline infusion, in 2 hr): 90%
- tolerability of massive doses ([2]; compromised BB rats in diabetic ketoacidosis): well tolerated
- infarct size, percent of the area at risk for infarction (myocardial infarct; DPAG 8.0 mg/kgmin for 120 min from onset of reperfusion, n=6, p<0.0005 vs control 40.0±3.6%): 9.1±3.8%
- effect on heart rate or ventricular pressure (myocardial infarct; DPAG infusion): did not affect heart rate or ventricular pressure
- fold induction at 500 µM (perfused rat livers [3]): 2.5

Molecule: O=C(O)O [NH4 HCO3]
- rate of ethanol oxidation (ethanol oxidation): increases the rate of ethanol oxidation

Molecule: CCOC(=O)[C@H](CSC(=O)C(C)=O)NC(C)=O [PNACE, Pyruvate-N-acetyl-L-cysteine ethyl ester]
- stability in slightly acidic solutions ([4]; pH 4-5): stable
- hydrolysis to pyruvate and N-acetylcysteine ethyl ester ([4]; pH 7.4): slowly hydrolyzed
- duration of functional recovery (isolated rabbit hearts [5]): lasted throughout the 30 minute reperfusion experiment
- infarct size, percent of the area at risk for infarction (myocardial infarct; PNACE group (n=4)): about 16±4%
- Release of lactate dehydrogenase (preserved rat livers; Group III preserved + PNACE (20 μM), 10-14 min.): 4.5 U/L.g
- Oxygen consumption (preserved rat livers; [8]): 2.4 µmol/min/g
- Release of alanine aminotransferase (preserved rat livers; [8]): 0.33 U/L.g
- Release of aspartate amino-transferase (preserved rat livers; [8]): 0.73 U/L.g
- Ketone body production (preserved rat livers; Group III preserved + PNACE (20 μM), 25-30 min., 1 mM octanoate): 1.4 µmol/min/g
- capacity of the liver to oxidize fatty acids to ketone bodies (preserved rat livers; [9]): restores partially the capacity of the liver to oxidize fatty acids to ketone bodies
- initial release of tissue enzymes (preserved rat livers; [9]): markedly decreases the initial release of tissue enzymes
- oxygen consumption (in words) (preserved rat livers; [9]): restores oxygen consumption to the level of non-preserved livers

Molecule: CC(=O)N[C@@H](CS)C(=O)O [acetylcysteine]
- production of ROS (reperfused rat hearts): decreases the production of ROS

Molecule: CC(C)NCC(O)c1ccc(O)c(O)c1 (stereo not shown) [isoproterenol]
- cardiac output after isoproterenol (isolated rabbit hearts [6]): almost zero

Molecule: CC(=O)C(=O)O [pyruvate]
- increase in ethanol uptake by perfused rat livers (perfused rat livers [7]): 3-6 fold

Molecule: insulin
- decrease of total KB concentration ([2]; 0.75 U insulin intravenously + saline, 2 hr): 30%
